How the values were obtained:
Neurotensin/neuromedin N = target: T1, Neurotensin/neuromedin N (Human, UniProt P30990)
T1 sequence (P30990 whole entry): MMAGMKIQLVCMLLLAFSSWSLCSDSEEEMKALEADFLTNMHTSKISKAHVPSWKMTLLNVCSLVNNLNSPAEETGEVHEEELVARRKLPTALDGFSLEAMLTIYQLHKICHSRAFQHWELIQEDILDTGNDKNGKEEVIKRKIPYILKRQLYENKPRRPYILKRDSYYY

Neurotensin = Neurotensin (Cavia porcellus, UniProt P32560)

| Ki (Neurotensin/neuromedin N) [nM] | Ki (Neurotensin) [nM] | SMILES |
| --- | --- | --- |
| 0.28 | 0.17 | COc1cccc(OC)c1-c1cc(C(=O)NC2(C(=O)O)C3CC4CC(C3)CC2C4)nn1-c1ccc(C(=O)N(C)CCCN(C)C)cc1C(C)C (stereo not drawn) [SR142948A] |
|  | 3.9 | COc1cccc(OC)c1-c1cc(C(=O)NC2(C(=O)O)C3CC4CC(C3)CC2C4)nn1-c1ccnc2cc(Cl)ccc12 (stereo not drawn) |

From BindingDB's records for PubMed 9023294 (Sanofi Recherche, 1997)
